From patent US20220145396A1, “METHOD OF IDENTIFYING PATIENTS WITH BORTEZOMIB RESISTANT MULTIPLE MYELOMA AND OTHER BLOOD DISEASES” (Max-Planck-Gesellschaft zur Förderung der Wissenschaften …, priority 2019, published 2022)
Entries after “also recorded” stand apart in the source; their conditions may differ.

Columns and labels:
[1] = test system: KMS-18 T21A mutant cell line; experiment: XTT viability assay of KMS-18 multiple myeloma cell line with spontaneous PSMB5 T21A substitution; format: cell-based, human; details: KMS-18 T21A mutant cells, heterozygous
Procedure: (§1) Cell viability was analyzed using the XTT cell proliferation Kit II (Roche Diagnostics, Basel, Switzerland) according to the manufacturer's instructions. Drug treatment was started 24 h after cell seeding. The absorbance was measured after 72 h of treatment and normalized to the respective untreated control cells.
KMS-18 and KMS-27 cells, having a wild type PSMB5 locus, were subjected to a 4-week selection on bortezomib without the use of mutagens.
Resistance of these two mutant cell lines to the different proteasome inhibitors was investigated using the XTT viability assay.

[2] = test system: bortezomib resistant PSMB5 mutant cell lines; experiment: XTT cell viability assay of bortezomib resistant PSMB5 mutant clones (AN3-12 mouse haploid embryonic stem cells) treated with proteasome inhibitors; format: cell-based
Procedure: AN3-12 mouse haploid embryonic stem cells were cultured as previously described (Elling et al., 2011). In brief, the cells were grown in DMEM high glucose (Sigma-Aldrich, St. Louis, Mo.) supplemented with 15% fetal bovine serum, penicillin/streptomycin, glutamine, non-essential amino acids, sodium pyruvate (all Thermo Fisher Scientific, Waltham, Mass.), β-mercaptoethanol, and Leukemia-Inhibitor Factor (LIF) (both Merck Millipore, Darmstadt, Germany) on non-coated tissue culture plates.
Chemical mutagenesis was performed as previously described (Horn et al., 2011). In brief, AN3-12 cells were transferred to 15 ml tubes, incubated with 0.1 mg/ml ENU for two hours at room temperature, washed five times with LIF-free medium, and plated on culture dishes. The cells were selected with 25 nM Bortezomib (Selleckchem, Houston, Tex.) for three weeks, starting 24 h after mutagenesis. Resistant clones were transferred to 24-well plates and the Psmb5 locus was analyzed. DNA was extracted (DNA extraction solution, Epicentre, Biotechnologies, Madison, Wis.) and exon 2 or exon 3 of the Psmb5 genewere specifically amplified by PCR using the primers msPSMB5exon2_fwd ([…]), msPSMB5exon2_rev ([…]), msPSMB5exon3_fwd ([…]), and msPSMB5exon3_rev ([…]). The used PSMB5 transcript is PSMB5-202, transcript identification ID ENST00000361611.11, coding sequence: CCDS9584, as available on Ensemble Biomart database. Sanger sequencing was performed at Eurofins Genomics GmbH (Ebersberg, Germany).
as §1

[3] = T21 substitutions, 15 nM carfilzomib or 75 nM oprozomib

## COC[C@H](NC(=O)c1cnc(C)s1)C(=O)N[C@@H](COC)C(=O)N[C@@H](Cc1ccccc1)C(=O)[C@@]1(C)CO1 [oprozomib]
[1]
  response in XTT viability assay: sensitive
[2]; 75 nM oprozomib, the different mutants
  resistance in cell viability assay: varying degrees of resistance; also recorded: highly variable
[2]; T21A substitution
  response in cell viability assay: hypersensitive
[2]; [3]
  response in cell viability assay: hypersensitivity

## CC(C)C[C@H](NC(=O)CNC(=O)c1cc(Cl)ccc1Cl)B(O)O [ixazomib]
[1]
  response in XTT viability assay: resistance
[2]; 50 nM ixazomib, all bortezomib resistant PSMB5 mutant cell lines
  resistance in cell viability assay: resistant
[2]; T21A substitution
  response in cell viability assay: resistance

## CC(C)C[C@H](NC(=O)[C@H](CCc1ccccc1)NC(=O)CN1CCOCC1)C(=O)N[C@@H](Cc1ccccc1)C(=O)N[C@@H](CC(C)C)C(=O)[C@@]1(C)CO1 [carfilzomib]
[1]
  response in XTT viability assay: sensitive
[2]; 15 nM carfilzomib, the different mutants
  resistance in cell viability assay: varying degrees of resistance; also recorded: highly variable
[2]; T21A substitution
  response in cell viability assay: hypersensitive
[2]; [3]
  response in cell viability assay: hypersensitivity
[2]; substitutions in positions C63, S130, or Y169
  response in cell viability assay (clustering, FIG. 12): partially maintained response

## CC(C)C[C@H](NC(=O)[C@H](Cc1ccccc1)NC(=O)c1cnccn1)B(O)O [bortezomib, [(1R)-3-Methyl-1-[[(2S)-1-oxo-3-phenyl-2-[(pyrazinylcarbonyl)amino]propyl]amino]butyl]boronic acid]
[1]
  response in XTT viability assay: resistance
[2]; 10 nM bortezomib, 72 h, identified Psmb5 mutant clones vs WT
  resistance of mutant cell lines compared to the wildtype control (viability assay): up to 2 fold
[2]; T21A substitution
  response in cell viability assay: resistance
